Experimental findings from patent publication US20050009840A1 (SUGEN, INC., priority 2003, published 2005) are described below.

The target of this assay is T1, Met kinase domain (GST fusion protein) (Homo sapiens, UniProt P08581).
T1 construct: Purified GST fusion protein containing the Met kinase domain
T1 sequence (P08581 1078-1345 limits assumed): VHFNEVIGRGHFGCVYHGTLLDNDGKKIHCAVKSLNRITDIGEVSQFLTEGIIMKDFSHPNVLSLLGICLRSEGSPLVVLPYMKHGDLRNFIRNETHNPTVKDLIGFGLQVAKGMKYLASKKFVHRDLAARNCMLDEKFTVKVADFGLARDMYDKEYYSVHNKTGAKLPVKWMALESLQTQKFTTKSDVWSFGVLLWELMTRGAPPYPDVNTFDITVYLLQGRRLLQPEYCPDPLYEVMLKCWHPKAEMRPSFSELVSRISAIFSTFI
As to the kind of experiment: Met transphosphorylation assay (ELISA, poly(glu-tyr) substrate).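 Also: Cell-free ELISA with plate-bound poly(Glu:Tyr 4:1) phosphorylated by GST-fused Met kinase domain plus ATP and Mn2+, phosphotyrosine detected by anti-phosphotyrosine antibody with HRP and ABTS read-out.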 It is filed as biochemical. The note with it: read-out: Met IC50. In general terms: ELISA stands for enzyme-linked immunosorbent assay.
One may read the IC50 as the point on the concentration scale where inhibition reaches its midpoint. As for `CC(Oc1nc(-c2ccc(NS(=O)(=O)CCN3CCN(C(=O)CO)CC3)cc2)cnc1N)c1c(F)ccc(F)c1Cl` (stereo not drawn) [II-120, 2-[4-(2-Hydroxy-acetyl)-piperazin-1-yl]-ethanesulfonic acid (4-{5-amino-6-[1-(2-chloro-3,6-difluoro-phenyl)-ethoxy]-pyrazin-2-yl}-phenyl)-amide], the IC50 stood at 190 nM.

Consider `Nc1ncc(-c2cccc(C(=O)N3CCC(N4CCCC4)CC3)c2)nc1OCc1cccc(F)c1C(F)(F)F` [II-122, {3-[5-Amino-6-(3-fluoro-2-trifluoromethyl-benzyloxy):pyrazin-2-yl]-phenyl)(4-pyrrolidin-1-yl-piperidin-1-yl)-methanone], for which the IC50 worked out at 190 nM.

Consider `CN1CCN(C(=O)c2cccc(-c3cnc(N)c(OCc4cccc(F)c4C(F)(F)F)n3)c2)CC1` [II-124, {3-[5-Amino-6-(3-fluoro-2-trifluoromethyl-benzylloxy)-pyrazin-2-yl]-phenyl}-(4-methyl-piperazin-1-yl)-methanone], for which the IC50 turned out to be 230 nM.

For `Nc1ncc(-c2cccc(C(=O)NCCCN3CCCC3)c2)nc1OCc1cccc(F)c1C(F)(F)F` [II-125, 3-[5-Amino-6-(3-fluoro-2-trifluoromethyl-benzyloxy)-pyrazin-2-yl]-N-(3-pyrrolidin-1-yl-propyl)-benzamide], the IC50 turned out to be 220 nM.

As for `CC(=O)N1CCN(CCNC(=O)c2cccc(-c3cnc(N)c(OCc4cccc(F)c4C(F)(F)F)n3)c2)CC1` [II-126, N-[2-(4-Acetyl-piperazin-1-yl)-ethyl]-3-[5-amino-6-(3-fluoro-2-trifluoromethyl-benzyloxy)-pyrazin-2-yl]-benzamide], the IC50 stood at 650 nM.

In the case of `Nc1ncc(-c2ccc(C(=O)N3CCC(N4CCCC4)CC3)cc2)nc1OCc1cccc(F)c1C(F)(F)F` [II-127, {4-[5-Amino-6-(3-fluoro-2-trifluoromethyl-benzyloxy)-pyrazin-2-yl]-phenyl}-(4-pyrrolidin-1-yl-piperidin-1-yl)-methanone], the IC50 was 47 nM.

Take `CN1CCN(C(=O)c2ccc(-c3cnc(N)c(OCc4cccc(F)c4C(F)(F)F)n3)cc2)CC1` [II-128, {4-[5-Amino-6-(3-fluoro-2-trifluoromethyl-benzyloxy)-pyrazin-2-yl]-phenyl}-(4-methyl-piperazin-1-yl)-methanone]: the IC50 amounted to 150 nM.

In the case of `Nc1ncc(-c2ccc(C(=O)N3CCC[C@H]3CN3CCCC3)cc2)nc1OCc1cccc(F)c1C(F)(F)F` [II-129, {4-[5-Amino-6-(3-fluoro-2-trifluoromethyl-benzyloxy)-pyrazin-2-yl]-phenyl}-((S)-2-pyrrolidin-1-ylmethyl-pyrrolidin-1-yl)-methanone], the IC50 is 52 nM.

As for `CC(Oc1nc(-c2cccc(C(=O)N3CCN(C)CC3)c2)cnc1N)c1c(Cl)ccc(F)c1Cl` (stereo not drawn) [II-130, (3-{5-Amino-6-[1-(2,6-dichloro-3-fluoro-phenyl)-ethoxy]-pyrazin-2-yl}-phenyl)-(4-methyl-piperazin-1-yl)-methanone], the IC50 was determined as 170 nM.

`CC(Oc1nc(-c2cccc(C(=O)N3C[C@@H](C)N[C@@H](C)C3)c2)cnc1N)c1c(Cl)ccc(F)c1Cl` (stereo partly drawn) [II-131, (3-{5-Amino-6-[1-(2,6-dichloro-3-fluoro-phenyl)-ethoxy]-pyrazin-2-yl}-phenyl)-((3R,5S)-3,5-dimethyl-piperazin-1-yl)-methanone]: the IC50 came out at 120 nM.

For `CC(Oc1nc(-c2cccc(C(=O)NC3CCN(C)CC3)c2)cnc1N)c1c(Cl)ccc(F)c1Cl` (stereo not drawn) [II-132, 3-{5-Amino-6-[1-(2,6-dichloro-3-fluoro-phenyl)-ethoxy]-pyrazin-2-yl}-N-(1-methyl-piperidin-4-yl)-benzamide], the IC50 stood at 130 nM.

In the case of `CC(Oc1nc(-c2cccc(C(=O)NCCN3CCCC3)c2)cnc1N)c1c(Cl)ccc(F)c1Cl` (stereo not drawn) [II-133, 3-{5-Amino-6-[1-(2,6-dichloro-3-fluoro-phenyl)-ethoxy]-pyrazin-2-yl}-N-(2-pyrrolidin-1-yl-ethyl)-benzamide], the IC50 was found to be 170 nM.
